# Laboratory results as given in the supplement of paper PMC6045584.
# ± gives the standard deviation of the averaged measurements.
# Compound: Cc1nc(Nc2n[nH]c3c2CN(C(=O)N[C@H](CN(C)C)c2ccccc2)C3(C)C)c2sccc2n1
# Assay: surviving fraction relative to DMSO-only wells; higher = less growth inhibition
# Details: 50 nM; exposure time: 5 days
# Summary of the method: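 Inhibitors were tested at 0.5, 1, 5, 10, 50, 100, 500 and 1000 nM, applied continuously for five days beginning 24 hours after log-phase tumour cells were seeded at 250–500 per well in 384-well plates. CellTiter-Glo luminescence served as the viability measure, expressed as surviving fraction against the median of DMSO-only wells. Each line, screened three times, was kept only with replicate Pearson r >0.7 and median Z' >0.3.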
row,Test System,surviving fraction
1,SAOS2 BONE,0.42 ± 0.019
2,SCC36 HEADNECK,0.152 ± 0.011
3,SCC47 HEADNECK,0.47 ± 0.018
4,SCC90 HEADNECK,0.488 ± 0.04
5,SG27 HEADNECK,0.408 ± 0.069
6,SG28 HEADNECK,0.667 ± 0.051
7,SG31 HEADNECK,0.456 ± 0.0092
8,SG32 HEADNECK,0.206 ± 0.014
9,SG43 HEADNECK,1.14 ± 0.2
10,SIHA CERVIX,0.419 ± 0.0098
11,SJSA1 BONE,0.448 ± 0.015
12,SKBR3 BREAST,0.454 ± 0.063
13,SNU475 LIVER,0.509 ± 0.0096
14,SUM44 BREAST,0.983 ± 0.059
15,SUM149 BREAST,0.124 ± 0.0069
16,SUM149.B1*.S BREAST,0.279 ± 0.032
17,SUM159 BREAST,0.554 ± 0.027
18,SYO1 SYNOVIAL,0.166 ± 0.016
19,T47D BREAST,0.887 ± 0.032
20,U2OS BONE,0.188 ± 0.025
21,VCAP PROSTATE,0.451 ± 0.084
22,VP229 BREAST,0.484 ± 0.055
23,YAMATO SYNOVIAL,0.354 ± 0.0056
24,ZR751 BREAST,0.427 ± 0.029

# Same assay, conditions: 100 nM; exposure time: 5 days
row,Test System,surviving fraction
1,MDAMB453 BREAST,0.359 ± 0.048
2,MDAMB468 BREAST,0.102 ± 0.0076
3,MFM223 BREAST,0.349 ± 0.038
4,MG63 BONE,0.275 ± 0.0096
5,MHM BONE,0.664 ± 0.022
6,NCIH441 LUNG,0.452 ± 0.04
7,NOS1 BONE,0.559 ± 0.062
8,NY BONE,0.402 ± 0.018
9,OS25HAL BONE,0.258 ± 0.015
10,OSHN BONE,0.347 ± 0.031
11,PCI30 HEADNECK,0.514 ± 0.024
12,RDES SOFT TISSUE,0.763 ± 0.1
13,S68 BREAST,0.318 ± 0.0098
14,SAOS2 BONE,0.376 ± 0.025
15,SCC36 HEADNECK,0.164 ± 0.029
16,SCC47 HEADNECK,0.432 ± 0.044
17,SCC90 HEADNECK,0.467 ± 0.028
18,SG27 HEADNECK,0.373 ± 0.053
19,SG28 HEADNECK,0.523 ± 0.063

row,Test System,surviving fraction
1,SG31 HEADNECK,0.609 ± 0.067
2,SG32 HEADNECK,0.148 ± 0.021
3,SG43 HEADNECK,0.959 ± 0.16
4,SIHA CERVIX,0.391 ± 0.0081
5,SJSA1 BONE,0.393 ± 0.025
6,SKBR3 BREAST,0.419 ± 0.045
7,SNU475 LIVER,0.467 ± 0.024
8,SUM44 BREAST,0.929 ± 0.038
9,SUM149 BREAST,0.145 ± 0.011
10,SUM149.B1*.S BREAST,0.748 ± 0.032
11,SUM159 BREAST,0.407 ± 0.026
12,SYO1 SYNOVIAL,0.129 ± 0.013
13,T47D BREAST,0.87 ± 0.014
14,U2OS BONE,0.142 ± 0.015
15,VCAP PROSTATE,0.397 ± 0.022
16,VP229 BREAST,0.386 ± 0.036
17,YAMATO SYNOVIAL,1.42 ± 0.17
18,ZR751 BREAST,0.463 ± 0.026

# Same assay, conditions: 500 nM; exposure time: 5 days
row,Test System,surviving fraction
1,MDAMB453 BREAST,0.23 ± 0.07
2,MDAMB468 BREAST,0.0473 ± 0.0076
3,MFM223 BREAST,0.14 ± 0.013
4,MG63 BONE,0.228 ± 0.015
5,MHM BONE,0.559 ± 0.023
6,NCIH441 LUNG,0.379 ± 0.048
7,NOS1 BONE,0.272 ± 0.043
8,NY BONE,0.258 ± 0.011
9,OS25HAL BONE,0.24 ± 0.032
10,OSHN BONE,0.366 ± 0.015
11,PCI30 HEADNECK,0.344 ± 0.014
12,RDES SOFT TISSUE,0.525 ± 0.044
13,S68 BREAST,0.25 ± 0.014
14,SAOS2 BONE,0.12 ± 0.018
15,SCC36 HEADNECK,0.101 ± 0.0062
16,SCC47 HEADNECK,0.292 ± 0.03
17,SCC90 HEADNECK,0.185 ± 0.016
18,SG27 HEADNECK,0.199 ± 0.046
19,SG28 HEADNECK,0.186 ± 0.0036

row,Test System,surviving fraction
1,SG31 HEADNECK,0.241 ± 0.024
2,SG32 HEADNECK,0.0707 ± 0.012
3,SG43 HEADNECK,0.971 ± 0.055
4,SIHA CERVIX,0.262 ± 0.031
5,SJSA1 BONE,0.289 ± 0.007
6,SKBR3 BREAST,0.344 ± 0.021
7,SNU475 LIVER,0.393 ± 0.015
8,SUM44 BREAST,0.735 ± 0.023
9,SUM149 BREAST,0.0783 ± 0.0083
10,SUM149.B1*.S BREAST,0.24 ± 0.0095
11,SUM159 BREAST,0.369 ± 0.028
12,SYO1 SYNOVIAL,0.0548 ± 0.0036
13,T47D BREAST,0.776 ± 0.013
14,U2OS BONE,0.075 ± 0.0027
15,VCAP PROSTATE,0.245 ± 0.036
16,VP229 BREAST,0.301 ± 0.031
17,YAMATO SYNOVIAL,0.353 ± 0.024
18,ZR751 BREAST,0.492 ± 0.041

# Same assay, conditions: 1000 nM; exposure time: 5 days
row,Test System,surviving fraction
1,MDAMB453 BREAST,0.0803 ± 0.015
2,MDAMB468 BREAST,0.0353 ± 0.0015
3,MFM223 BREAST,0.0562 ± 0.005
4,MG63 BONE,0.227 ± 0.013
5,MHM BONE,0.535 ± 0.014
6,NCIH441 LUNG,0.329 ± 0.018
7,NOS1 BONE,0.134 ± 0.0068
8,NY BONE,0.0807 ± 0.0051
9,OS25HAL BONE,0.218 ± 0.0047
10,OSHN BONE,0.279 ± 0.018
11,PCI30 HEADNECK,0.0833 ± 0.019
12,RDES SOFT TISSUE,0.503 ± 0.094
13,S68 BREAST,0.234 ± 0.017
14,SAOS2 BONE,0.034 ± 0.0017
15,SCC36 HEADNECK,0.106 ± 0.0084
16,SCC47 HEADNECK,0.135 ± 0.023
17,SCC90 HEADNECK,0.177 ± 0.034
18,SG27 HEADNECK,0.115 ± 0.01
19,SG28 HEADNECK,0.049 ± 0.0053

row,Test System,surviving fraction
1,SG31 HEADNECK,0.344 ± 0.033
2,SG32 HEADNECK,0.041 ± 0.011
3,SG43 HEADNECK,1.35 ± 0.2
4,SIHA CERVIX,0.146 ± 0.017
5,SJSA1 BONE,0.243 ± 0.0072
6,SKBR3 BREAST,0.1 ± 0.011
7,SNU475 LIVER,0.244 ± 0.015
8,SUM44 BREAST,0.541 ± 0.023
9,SUM149 BREAST,0.117 ± 0.013
10,SUM149.B1*.S BREAST,0.691 ± 0.046
11,SUM159 BREAST,0.292 ± 0.0093
12,SYO1 SYNOVIAL,0.0347 ± 0.0023
13,T47D BREAST,0.528 ± 0.04
14,U2OS BONE,0.0633 ± 0.0015
15,VCAP PROSTATE,0.0417 ± 0.0063
16,VP229 BREAST,0.311 ± 0.026
17,YAMATO SYNOVIAL,1.39 ± 0.074
18,ZR751 BREAST,0.462 ± 0.037
